Measurements taken from ChEMBL document CHEMBL1144795, “Design of high-affinity peptide conjugates with optimized fluorescence quantum yield as markers for small peptide transporter PEPT1 (SLC15A1)” (Bioorg Med Chem Lett, 2008).

biological target: T1, Solute carrier family 15 member 1 (Homo sapiens) (UniProt P46059); assay: Inhibition of human PEPT1-mediated [3H]GlySar uptake in CHO cells at 1 mM; format: cell-based
T1 sequence (whole entry): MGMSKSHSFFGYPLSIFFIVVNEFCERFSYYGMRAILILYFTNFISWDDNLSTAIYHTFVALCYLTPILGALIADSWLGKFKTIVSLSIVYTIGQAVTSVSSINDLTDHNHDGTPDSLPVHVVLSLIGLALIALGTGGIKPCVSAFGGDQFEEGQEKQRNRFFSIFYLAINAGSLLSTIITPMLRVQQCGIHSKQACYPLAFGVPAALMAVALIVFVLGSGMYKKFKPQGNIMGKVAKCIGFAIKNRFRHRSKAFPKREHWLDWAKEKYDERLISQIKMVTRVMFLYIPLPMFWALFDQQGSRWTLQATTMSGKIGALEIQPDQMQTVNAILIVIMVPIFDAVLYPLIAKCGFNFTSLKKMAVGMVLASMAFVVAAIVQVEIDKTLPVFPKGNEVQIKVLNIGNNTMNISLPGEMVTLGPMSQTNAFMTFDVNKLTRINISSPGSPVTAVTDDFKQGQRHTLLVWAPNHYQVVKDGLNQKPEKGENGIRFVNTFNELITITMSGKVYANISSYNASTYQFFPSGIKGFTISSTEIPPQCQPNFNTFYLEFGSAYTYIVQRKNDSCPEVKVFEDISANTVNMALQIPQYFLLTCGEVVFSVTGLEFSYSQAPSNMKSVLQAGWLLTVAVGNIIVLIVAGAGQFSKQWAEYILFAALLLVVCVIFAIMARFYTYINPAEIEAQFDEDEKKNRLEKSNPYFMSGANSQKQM

**Q.** Which inhibition does the source give for `Cc1c(CC(=O)NCCCC[C@H](N)C(=O)N[C@H](C(=O)O)C(C)C)c(=O)oc2cc(N)c(S(=O)(=O)O)cc12` here?
**A.** 40%

**Q.** With `Cc1c(CC(=O)NCCCC[C@H](N)C(=O)N[C@@H](C)C(=O)O)c(=O)oc2cc(N)c(S(=O)(=O)O)cc12` as the molecule, how does the inhibition read?
**A.** < 22%

**Q.** For `Cc1c(CC(=O)NCCCC[C@H](N)C(=O)N[C@@H](CO)C(=O)O)c(=O)oc2cc(N)c(S(=O)(=O)O)cc12`, which inhibition is on record?
**A.** < 22%
